Test results as given in US12357697B2, “Pharmaceutical compositions comprising bupropion and cysteine” (AXSOME THERAPEUTICS, INC., priority 2022, dated 2025).
Where a name gives a salt, the structure may show the parent alone. Read-outs that look alike come from different tables or passages of the source.

Columns and labels:
[1] = not given; remark: listed apart in the source

Structure (SMILES): CC(NC(C)(C)C)C(=O)c1cccc(Cl)c1 (stereo not shown) [AB, bupropion hydrochloride]
- stability / compatibility of bupropion hydrochloride (in words) (8 weeks): stable for the entire 8 weeks
- ASSAY (25° C./60% RH, 4 wks): 97.6
- TOTAL RS > LOQ (25° C./60% RH, 4 wks): <LOQ
- ASSAY (25° C./60% RH, 8 wks): 100.2
- TOTAL RS > LOQ (25° C./60% RH, 8 wks): 0.13
- ASSAY (40° C./75% RH, 2 wks): 100.4
- TOTAL RS > LOQ (40° C./75% RH, 2 wks): 0.43
- ASSAY (40° C./75% RH, 4 wks): 99.3
- TOTAL RS > LOQ (40° C./75% RH, 4 wks): 0.94
- ASSAY (40° C./75% RH, 8 wks): 101.3
- TOTAL RS > LOQ (40° C./75% RH, 8 wks): 1.16
- ASSAY (50° C./ambient, 2 wks): 100.6
- TOTAL RS > LOQ (50° C./ambient, 2 wks): 0.14
- ASSAY (T = 0 (initial)): 100.4
- TOTAL RS > LOQ (T = 0 (initial)): <LOQ

Structure (SMILES): COc1ccc2c(c1)[C@]13CCCC[C@@H]1[C@H](C2)N(C)CC3 [AD, dextromethorphan hydrobromide monohydrate]
- ASSAY ([1]; 25° C./60% RH, 4 wks): 102.5
- TOTAL RS ([1]; 25° C./60% RH, 4 wks): 0.25
- ASSAY ([1]; 25° C./60% RH, 8 wks): 100.2
- TOTAL RS ([1]; 25° C./60% RH, 8 wks): 0.20
- ASSAY ([1]; 40° C./75% RH, 4 wks): 101.5
- TOTAL RS ([1]; 40° C./75% RH, 4 wks): 0.18
- ASSAY ([1]; 40° C./75% RH, 8 wks): 100.1
- TOTAL RS ([1]; 40° C./75% RH, 8 wks): 0.72
- ASSAY ([1]; T = 0 (initial)): 101.4
- TOTAL RS ([1]; T = 0 (initial)): 0.21
